In US8247211B2, “Glycopeptide antibiotics” (American Cyanamid Company, priority 2001, dated 2012):
≈ marks a conversion by molar mass, not a printed value.

Experiments:
Assay in all cases: In vitro antibacterial evaluation: minimum inhibitory concentration (MIC), broth dilution method
Format in all cases: cell-based
Enterococcus sp. = details: broth dilution, 5×10^5 CFU/mL, 18 hours at 35° C.
Procedure, shortened: (§1)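 NCCLS M7-A2 broth dilution with Mueller-Hinton II, testing 64-0.06 μg/mL antibiotic against 5×10^5 CFU/mL inocula. Test strains include recent methicillin-, penicillin- or vancomycin-resistant clinical isolates. MIC is the lowest concentration preventing growth.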

Streptococcus sp. = details: broth dilution, 5×10^5 CFU/mL, 18 hours at 35° C.
Procedure, shortened: as §1

Escherichia coli = details: 5×10^5 CFU/mL, 18 hours at 35° C.
Procedure, shortened: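 Inoculum: 5×10^5 CFU/mL. Range: 64-0.06 μg/mL. Medium: Muller-Hinton II […]; NCCLS M7-A2 broth dilution. Endpoint: lowest concentration inhibiting growth. Strains include methicillin-, penicillin- and/or vancomycin-resistant clinical isolates.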

Staphylococcus sp. = details: for MIC Staphylococcus aureus (ATCC 29213): strain ATCC 29213; for MIC Staphylococcus aureus (GC 1131): strain GC 1131; for MIC Staphylococcus aureus (GC 4541): strain GC 4541; for MIC Staphylococcus aureus (GC 4542): strain GC 4542; for MIC Staphylococcus aureus-SMITH (GC 4543): strain GC 4543; for MIC Staphylococcus aureus (GC 4544): strain GC 4544; for MIC Staphylococcus aureus (GC 4545): strain GC 4545; for MIC Staphylococcus haemolyticus (GC 4546): strain GC 4546; for MIC Coagulase Negative Staphylococcus (GC 4547): strain GC 4547; for MIC Coagulase Negative Staphylococcus (GC 4548): strain GC 4548; for MIC Coagulase Negative Staphylococcus (GC 4549): strain GC 4549; for MIC Coagulase Negative Staphylococcus (GC 4551): strain GC 4551; for MIC Coagulase Negative Staphylococcus (ID-3941): strain ID-3941
Procedure, shortened: as §1

[1] = broth dilution, 18 hours at 35° C.

CC(C)CC1OCC2OC(OC3C(CO)OC(Oc4ccc(CC5NC(=O)C(C(C)c6ccccc6)NC(=O)CNC(=O)C(CO)NC(=O)C(C(O)C6CNC(=N)N6C6OC(CO)C(O)C(O)C6O)NC(=O)C(C(O)C6CNC(=N)N6)NC5=O)cc4)C(O)C3O)C(O)C(O)C2O1 (stereo not drawn) [Example 107, Cyclo[glycyl-β-methylphenylalanyl-O-[4-O-[4,6-O-(3-methylbutylidene)hexopyranosyl]-hexopyranosyl]tyrosyl-3-(2-iminoimidazolidin-4-yl)seryl-3-(3-hexopyranosyl-2-iminoimidazolidin-4-yl)serylseryl]]
MIC Enterococccus avium (GC 4558) (Enterococcus sp.): 8 µg/mL (≈ 5.87 µM)
MIC Enterococccus faecalis (ATCC 29212) (Enterococcus sp.): 4 µg/mL (≈ 2.93 µM)
MIC Enterococccus faecalis (GC 4552) (Enterococcus sp.): 4 µg/mL (≈ 2.93 µM)
MIC Enterococccus faecalis (GC 4553) (Enterococcus sp.): 8 µg/mL (≈ 5.87 µM)
MIC Enterococccus faecalis (GC 4554) (Enterococcus sp.): 4 µg/mL (≈ 2.93 µM)
MIC Enterococccus faecium (GC 2243) (Enterococcus sp.): 8 µg/mL (≈ 5.87 µM)
MIC Enterococccus faecium (GC 4556) (Enterococcus sp.): 4 µg/mL (≈ 2.93 µM)
MIC Enterococccus faecium (GC 4557) (Enterococcus sp.): 2 µg/mL (≈ 1.47 µM)
MIC Enterococcus faecalis (GC 2242) (Enterococcus sp.): 4 µg/mL (≈ 2.93 µM)
MIC Streptococcus agalactiae (GC 4564) (Streptococcus sp.): 0.25 µg/mL (≈ 0.183 µM)
MIC Streptococcus pneumoniae (GC 4565) (Streptococcus sp.): <0.12 µg/mL
MIC Streptococcus pyogenes (ID-3187) (Streptococcus sp.): 0.25 µg/mL (≈ 0.183 µM)
MIC Escherichia coli (ATCC 25922) (Escherichia coli): 64 µg/mL (≈ 46.9 µM)
MIC Staphylococcus aureus (ATCC 29213) (Staphylococcus sp.): 1 µg/mL (≈ 0.733 µM)
MIC Staphylococcus aureus (ATCC 29213) (Staphylococcus sp.; [1]): 1 µg/mL (≈ 0.733 µM)
MIC Staphylococcus aureus (GC 1131) (Staphylococcus sp.): 2 µg/mL (≈ 1.47 µM)
MIC Staphylococcus aureus (GC 1131) (Staphylococcus sp.; [1]): 2 µg/mL (≈ 1.47 µM)
MIC Staphylococcus aureus (GC 4541) (Staphylococcus sp.): 2 µg/mL (≈ 1.47 µM)
MIC Staphylococcus aureus (GC 4541) (Staphylococcus sp.; [1]): 2 µg/mL (≈ 1.47 µM)
MIC Staphylococcus aureus (GC 4542) (Staphylococcus sp.): 1 µg/mL (≈ 0.733 µM)
MIC Staphylococcus aureus (GC 4542) (Staphylococcus sp.; [1]): 1 µg/mL (≈ 0.733 µM)
MIC Staphylococcus aureus-SMITH (GC 4543) (Staphylococcus sp.; 18 hours at 35° C.): 1 µg/mL (≈ 0.733 µM)
MIC Staphylococcus aureus-SMITH (GC 4543) (Staphylococcus sp.; [1]): 1 µg/mL (≈ 0.733 µM)
MIC Staphylococcus aureus (GC 4544) (Staphylococcus sp.): 2 µg/mL (≈ 1.47 µM)
MIC Staphylococcus aureus (GC 4544) (Staphylococcus sp.; [1]): 2 µg/mL (≈ 1.47 µM)
MIC Staphylococcus aureus (GC 4545) (Staphylococcus sp.): 1 µg/mL (≈ 0.733 µM)
MIC Staphylococcus aureus (GC 4545) (Staphylococcus sp.; [1]): 1 µg/mL (≈ 0.733 µM)
MIC Staphylococcus haemolyticus (GC 4546) (Staphylococcus sp.): 1 µg/mL (≈ 0.733 µM)
MIC Staphylococcus haemolyticus (GC 4546) (Staphylococcus sp.; [1]): 1 µg/mL (≈ 0.733 µM)
MIC Coagulase Negative Staphylococcus (GC 4547) (Staphylococcus sp.): 1 µg/mL (≈ 0.733 µM)
MIC Coagulase Negative Staphylococcus (GC 4547) (Staphylococcus sp.; [1]): 1 µg/mL (≈ 0.733 µM)
MIC Coagulase Negative Staphylococcus (GC 4548) (Staphylococcus sp.): 1 µg/mL (≈ 0.733 µM)
MIC Coagulase Negative Staphylococcus (GC 4548) (Staphylococcus sp.; [1]): 1 µg/mL (≈ 0.733 µM)
MIC Coagulase Negative Staphylococcus (GC 4549) (Staphylococcus sp.): 1 µg/mL (≈ 0.733 µM)
MIC Coagulase Negative Staphylococcus (GC 4549) (Staphylococcus sp.; [1]): 1 µg/mL (≈ 0.733 µM)
MIC Coagulase Negative Staphylococcus (GC 4551) (Staphylococcus sp.): 1 µg/mL (≈ 0.733 µM)
MIC Coagulase Negative Staphylococcus (GC 4551) (Staphylococcus sp.; [1]): 1 µg/mL (≈ 0.733 µM)
MIC Coagulase Negative Staphylococcus (ID-3941) (Staphylococcus sp.): 1 µg/mL (≈ 0.733 µM)
MIC Coagulase Negative Staphylococcus (ID-3941) (Staphylococcus sp.; [1]): 1 µg/mL (≈ 0.733 µM)
